Experimental data published in ChEMBL document CHEMBL1201862, “PubChem BioAssay data set” (2004).
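The compound was tested at five concentrations on cells cultured in 96-well plates, with a 48-hour exposure period. At the GI50, growth is halved.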 Calls of active or inactive are those of the source. Rule as the data show it: active = GI50 up to about 1.1 µM and inactive = higher.

What was measured:
Assay in all cases: DTP human tumour cell line panel, 48 h
CCRF-CEM = test system: CCRF-CEM
DMS-114 = test system: DMS-114
HCC 2998 = test system: HCC 2998
HT-29 = test system: HT-29
M14 = test system: M14
M19-MEL = test system: M19-MEL
MOLT-4 = test system: MOLT-4
NCI-H522 = test system: NCI-H522
SF-268 = test system: SF-268
SF-539 = test system: SF-539
SK-MEL-2 = test system: SK-MEL-2
SNB-19 = test system: SNB-19
UACC-62 = test system: UACC-62
HCT-15 = test system: HCT-15
LOX IMVI = test system: LOX IMVI
NCI-H460 = test system: NCI-H460
RXF 393 = test system: RXF 393
U-251 = test system: U-251

Structure (SMILES) | GI50 (CCRF-CEM) | GI50 (DMS-114) | GI50 (HCC 2998) | GI50 (HT-29) | GI50 (M14) | GI50 (M19-MEL) | GI50 (MOLT-4) | GI50 (NCI-H522) | GI50 (SF-268) | GI50 (SF-539) | GI50 (SK-MEL-2) | GI50 (SNB-19) | GI50 (UACC-62) | GI50 (HCT-15) [µM] | GI50 (LOX IMVI) | GI50 (NCI-H460) | GI50 (RXF 393) | GI50 (U-251)
CCCCCCCCCCCCCCCCCCOCC(C[N+]1(C)CCC(O)CC1)OCC (stereo not drawn) | 1.97 µM (inactive) | 3.19 µM (inactive) | 12.7 µM (inactive) | 3.37 µM (inactive) | 9.51 µM (inactive) | 3.52 µM (inactive) | 2.87 µM (inactive) | 5.71 µM (inactive) | 3.39 µM (inactive) | 14.9 µM (inactive) | 4.3 µM (inactive) | 6.73 µM (inactive) | 5.27 µM (inactive) | – | – | – | – | –
C#CC[N+](C)(CC#C)CC#C | > 100 µM (inactive) | > 100 µM (inactive) | > 100 µM (inactive) | > 100 µM (inactive) | > 100 µM (inactive) | > 100 µM (inactive) | > 100 µM (inactive) | > 100 µM (inactive) | > 100 µM (inactive) | – | > 100 µM (inactive) | > 100 µM (inactive) | > 100 µM (inactive) | > 100 | > 100 µM (inactive) | > 100 µM (inactive) | > 100 µM (inactive) | –
O/N=C1/C(=C/c2ccc(Br)cc2)CCCC1C(NO)c1ccc(Br)cc1 (stereo not drawn) | 18 µM (inactive) | 13.5 µM (inactive) | – | 18.3 µM (inactive) | 15.4 µM (inactive) | 17 µM (inactive) | 8.32 µM (inactive) | 16 µM (inactive) | 13.6 µM (inactive) | 22.4 µM (inactive) | 16.7 µM (inactive) | 15.8 µM (inactive) | 13.9 µM (inactive) | 17.3 | 20.4 µM (inactive) | > 10 µM (inactive) | 15.6 µM (inactive) | 18.9 µM (inactive)
C/C(CC(=O)CCC(=O)Nc1cccc(C(F)(F)F)c1)=N\NC(=O)NN | > 100 µM (inactive) | > 100 µM (inactive) | > 100 µM (inactive) | > 100 µM (inactive) | > 100 µM (inactive) | > 100 µM (inactive) | > 100 µM (inactive) | > 100 µM (inactive) | > 100 µM (inactive) | > 100 µM (inactive) | > 100 µM (inactive) | > 100 µM (inactive) | > 100 µM (inactive) | > 100 | – | > 100 µM (inactive) | – | > 100 µM (inactive)
CCCCCCCCCCNCCSSCc1ccc(Cl)cc1 | 1.64 µM (inactive) | 1.57 µM (inactive) | 1.89 µM (inactive) | 1.77 µM (inactive) | 0.233 µM (active) | 1.22 µM (inactive) | 0.439 µM (active) | 1.61 µM (inactive) | 0.631 µM (active) | 1.95 µM (inactive) | 0.352 µM (active) | 1.71 µM (inactive) | 0.407 µM (active) | 2.48 | 1.92 µM (inactive) | 3.25 µM (inactive) | 3.3 µM (inactive) | 3.27 µM (inactive)
Cc1nc(Nc2ccccc2)sc1C(=O)CC(=O)C(=O)Nc1c(C(C)C)cccc1C(C)C | 89.7 µM (inactive) | 81.7 µM (inactive) | > 100 µM (inactive) | > 100 µM (inactive) | > 100 µM (inactive) | > 100 µM (inactive) | > 100 µM (inactive) | > 100 µM (inactive) | > 100 µM (inactive) | > 100 µM (inactive) | > 100 µM (inactive) | > 100 µM (inactive) | 55.6 µM (inactive) | 98.9 | 43.2 µM (inactive) | > 100 µM (inactive) | 42 µM (inactive) | > 100 µM (inactive)
Cc1cc(OC(=O)c2c(C)cc(OC(=O)c3c(C)cc(O)cc3O)cc2O)cc(O)c1C(=O)O [GYROPHORIC ACID] | > 100 µM (inactive) | > 100 µM (inactive) | > 100 µM (inactive) | > 100 µM (inactive) | > 100 µM (inactive) | > 100 µM (inactive) | > 100 µM (inactive) | > 100 µM (inactive) | > 100 µM (inactive) | > 100 µM (inactive) | > 100 µM (inactive) | > 100 µM (inactive) | > 100 µM (inactive) | – | > 100 µM (inactive) | > 100 µM (inactive) | > 100 µM (inactive) | > 100 µM (inactive)
CCOc1ccc(NC(=O)C(=O)CC(=O)C2=C(C)Nc3ccccc3S2)cc1 | > 50 µM (inactive) | > 50 µM (inactive) | > 50 µM (inactive) | > 50 µM (inactive) | > 50 µM (inactive) | > 50 µM (inactive) | > 50 µM (inactive) | > 50 µM (inactive) | > 50 µM (inactive) | > 50 µM (inactive) | > 50 µM (inactive) | > 50 µM (inactive) | > 50 µM (inactive) | > 50 | > 50 µM (inactive) | > 50 µM (inactive) | > 50 µM (inactive) | > 50 µM (inactive)
